Experimental data: patent US5668116A, “Anti-inflammatory compounds and compositions” (Anthropharm Pty. Limited, priority 1987, dated 1997)
Several values for one entry are separate records, joined by “and”; a condition that tells them apart may be missing. Identical values can stand only once.

How the values were obtained:
[1] = test system: human synovial fibroblasts (line derived from OA joints); assay: In vitro biosynthesis of hyaluronic acid by synovial fibroblasts; assay type: cell-based; conditions: for in vitro biosynthesis of hyaluronic acid (HA): FIG. 1, 2, 17
[2] = test system: mature rabbit articular cartilage; conditions: 8 week intra-articular treatment
[3] = biological target: T1, human granulocyte elastase (HGE) (Homo sapiens, UniProt P08246); assay: Inhibition of human granulocyte elastase (HGE), SAAVNA substrate; assay type: biochemical
T1 construct: HGE prepared according to the method of Andrews et al; from tissue
T1 sequence (P08246 30-247 limits assumed): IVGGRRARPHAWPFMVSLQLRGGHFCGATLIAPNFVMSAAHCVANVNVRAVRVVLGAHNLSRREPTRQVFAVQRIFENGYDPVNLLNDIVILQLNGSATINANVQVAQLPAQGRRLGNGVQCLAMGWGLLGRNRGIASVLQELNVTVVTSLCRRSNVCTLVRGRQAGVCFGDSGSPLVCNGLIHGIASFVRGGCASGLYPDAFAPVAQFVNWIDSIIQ
Excerpt: (a) HGE prepared according to the method of Andrews et al (Chem. Biological Int. 47, 157, 1983) was used to degrade
the synthetic specific substrate for this enzyme-(succinyl-dialanyl-valyl nitroanalide (SAAVNA)).
In these experiments the inhibitory activity of DH40J, PPS as SP54® and mixtures of SP54® and ZnSO4 in various proportions against HGE using the same condition as in (a), except that a different enzyme preparation was used, were investigated. […] A variety of ratios of Zn^+ to SP54® were tested for their ability to inhibit the HGE.

[4] = test system: articular cartilages implanted in rat air pouches; assay: Rat air pouch model, loss of proteoglycans from implanted articular cartilage; assay type: in vivo; conditions: 10 mg/kg/day into the air pouch for seven days, peptone inflammation; FIG. 12
Protocol: This model was originally described by Sin, M. Y., et al J. Path. 141, 23 (1984) and Sedgwick A. D. et al Ann. Rheum. Dis. 43, 418 (1984) and provides a convenient and reproducable method of evaluating the effects of drugs on cartilage metabolism in vivo. This model was used to investigate the influence of SP54® and DH40J when administered into the rat air pouch at 10 mg/kg on the loss of cartilage proteoglycans (PGs) induced by an inflammatory cell invasion of the pouch.
Air pouches were created on the dorsal surface of male 200 gm Wistar rats by the initial injection of 20 ml of sterile air. Re-injection every second day maintained cavity inflation. Articular cartilage (AC) aseptically harvested from the knee joints of 10 week old New Zealand White rabbits, was implanted into formed 7 day old rat air pouches. Drugs (10 mg/kg), diluted in saline, were administered daily into the air pouch beginning the day of cartilage implantation. Saline was administered to a control group. Inflammation of the air pouch was achieved by the injection of 10 ml of sterile 3% peptone into the pouch every second day, beginning the day of cartilage implantation. […] Cells in the APF were stained with crystal violet and a total cell count determined. […] Implanted AC (8-10 mgs) was digested by papain and PG content was determined by hexuronic acid and sulphated glycosaminoglycan (GAG) analysis. […]

[5] = in vitro; Arch. Int. Pharmacodyn. Ther. 282, 196-208 (1986); cited from earlier work
[6] = Table 7, different enzyme preparation, single inhibitor

Compound | in vitro biosynthesis of hyaluronic acid (HA) [1] | 4M Gu HCl,PG Extractability ([2]; individual joints) | 35S-PG Specific (activity) ([2]; individual joints) | Hexuronic Acid(UA) ([2]; individual joints, hydrocortisone 50 mg, pentosan polysulphate 5 mg) | 4M Gu HCl,PG Extractability Mean ± SD ([2]; n = 4 joints) [%] | 35S-PG Specific (activity) Mean ± SD ([2]; n = 4 joints) [DPM/ug UA] | Hexuronic Acid(UA) Mean ± SD ([2]; n = 4 joints) [ug/mg dry wt.] | IC50 (HGE inhibition) [3, 6] [mg/L] | IC50 (HGE inhibition) ([3]; Table 6, 1 μg HGE/ml, 0.2 mM SAAVNA, pH 7.4, 37° C.) [mg/L] | % DIFFERENCE from SP54 (IC50, HGE) ([3]; Table 7, single inhibitor) [%] | loss of proteoglycans (uronic acid) from implanted articular cartilage [4] | restoration of HA biosynthesis suppressed by hydrocortisone ([1]; hydrocortisone at 10^6 M (so in the source), drug at 0.25 ug/ml, FIG. 19, 21) | restoration of HA biosynthesis suppressed by hydrocortisone ([1]; hydrocortisone at 10^8 M (so in the source), drug 0.1-1.0 ug/ml, FIG. 20) | prevention of the effects of hydrocortisone on synovial fibroblast biosynthesis of HA ([1]; in vitro) | improving proteoglycan incorporation into the extracellular matrix [5]
C[C@]12CCC(=O)C=C1CC[C@@H]1[C@@H]2[C@@H](O)C[C@@]2(C)[C@H]1CC[C@]2(O)C(=O)CO [Cortisone, hydrocortisone] | progressively inhibited | 53.2% and 57.6% and 56.8% and 51.5% | 896.8 DPM/ug UA and 866.6 DPM/ug UA and 1061.4 DPM/ug UA and 854.2 DPM/ug UA | 27.4 ug/mg dry wt. and 23.2 ug/mg dry wt. and 20.0 ug/mg dry wt. and 21.8 ug/mg dry wt. | 54.7 ± 2.9 | 919.7 ± 96.1 | 23.1 ± 3.1 | – | – | – | – | – | – | – | –
O=S(=O)([O-])[O-].[Zn+2] [ZnSO4, zinc sulphate] | – | – | – | – | – | – | – | 10 | – | – | – | – | – | – | –
pentosan polysulphate sodium salt [SP54] | stimulates the biosynthesis of hyaluronic acid (HA) | – | – | – | – | – | – | 0.381 | 0.249 | 0 | equally effective in preventing the loss of proteoglycans | almost, but not totally, restored to control value | fully restored synthesis to control values | could prevent the deleterious effects of hydrocortisone | active in vitro in improving proteoglycan incorporation into the extracellular matrix
